These results are taken from patent EP0913399A1, “Silver -2-mercapto sodium benzoate pharmaceutical compound and process for obtaining the same” (Korban Medical S.a.s. di Longhetti Gianna & C., priority 1997, dated 1999).

One data set concerns tested organism. Kind of data set: MIC comparison of equivalent ionic doses of Ag^+ from thiometal and from nitrate; antibacterial action of the anion. The class given is cell-based.
A short description of the next data set: solubility. The class given is physicochemical.
Data set [1] is described as follows: effects to the skin (photosensitization, irritating, caustic).

Where a name gives a salt, the structure may show the parent alone.

As for `O=C(O)c1ccccc1S` [mercapto sodium benzoate anion, sodium salt of the 2-mercaptobenzoic acid, reference compound], the antibacterical action result in the data set on tested organism is “does not develop an antibacterical action”.
As for `O=C(O)c1ccccc1[S][Ag]` [silver-2-mercapto sodium benzoate], the Solubility entry is reported as “moderately soluble” in the data set “solubility” (DMSO); “insoluble” in the data set “solubility” (absolute ethanol); “insoluble” in the data set “solubility” (acetone); “insoluble” in the data set “solubility” (ether); “soluble” in the data set “solubility” (water (cold)). For the same compound, the “caustic effects to the skin” value in data set [1] is “does not cause”. Further, in data set [1], the “irritating effects to the skin” value is reported as “does not cause”. For the same compound, the photosensitization result in data set [1] is “does not cause”. The “activity in MIC in favour of the thiometal” value with tested organism (comparison of equivalent ionic doses of Ag^+ from thiometal and from nitrate, variable depending on the tested organism) is listed as -1.6 to -50 mcg/ml.
